“Also recorded” adds a separate entry of the source. Where two headings read alike, the source gives them in different places. Each block holds one compound with its values, some of them ahead of it.
Legend:
[1] = test system: antioxidant response element (ARE) signaling pathway; assay: ARE-bla β-lactamase reporter gene assay in HepG2 cells (qHTS); type: cell-based, human
[2] = test system: Nrf2-dependent ARE transcriptional activity; assay: ARE-luc luciferase reporter gene assay in HepG2 cells (qHTS); type: cell-based; parameters: Emax: reference not given here
mutated ARE = type: cell-based; settings: for ARE-bla mutant Efficacy: normalized to DMSO (0%) and ARE-bla maximal β-napthoflavone response (100%)
[3] = confirmation/follow-up studies, HepG2, 16 hr exposure, mean ± SD
[4] = follow-up studies, up to 46 µM, listed as quinoline
[5] = Homo sapiens, HepG2, confirmation/follow-up studies, activation of ARE reporter as % of positive control (β-napthoflavone), read-out: ARE-bla Efficacy
[6] = Homo sapiens, confirmation/follow-up studies, HepG2, 16 hr exposure, mean ± SD, read-out: ARE-bla EC50
[7] = Homo sapiens, confirmation/follow-up studies, HepG2, 16 hr exposure, mean ± SD, read-out: ARE-luc EC50
[8] = primary qHTS screening, 0.59 nM to 92 µM
[9] = confirmation/follow-up studies, HepG2, mean ± SD
[10] = Homo sapiens, HepG2, confirmation/follow-up studies, […], read-out: ARE-bla Efficacy
[11] = Homo sapiens, HepG2, confirmation/follow-up studies, […], read-out: ARE-luc Efficacy
[12] = Homo sapiens, HepG2, 16 h, read-out: ARE-bla EC50
[13] = Homo sapiens, HepG2, read-out: ARE-bla Efficacy
[14] = Homo sapiens, HepG2, 16 h, read-out: ARE-luc EC50
[15] = Homo sapiens, HepG2, read-out: ARE-luc Efficacy
[16] = confirmation/follow-up studies, HepG2, 16 hr exposure, mean ± SD, read-out: ARE-bla EC50
[17] = confirmation/follow-up studies, activation of ARE reporter as % of positive control (β-napthoflavone)
[18] = confirmation/follow-up studies, HepG2, 16 hr exposure, mean ± SD, read-out: ARE-luc EC50
[19] = follow-up studies, up to 46 µM, listed as chlorambucil
[20] = confirmation/follow-up studies, […]

Compound: c1ccc2ncccc2c1 [Quinoline]
- ARE-bla EC50 [1, 3]: inactive
- activity in ARE-bla assay (words) ([1]; follow-up studies, up to 46 µM): inactive in all assays
- activity in ARE-bla assay (words) [1, 4]: inactive across all assays
- ARE-luc EC50 [2, 3]: inactive
- activity in ARE-luc assay (words) ([2]; follow-up studies, up to 46 µM): inactive in all assays
- activity in ARE-luc assay (words) [2, 4]: inactive across all assays
- ARE-bla mutant IC50 (mutated ARE): inactive
- activity in ARE-bla-mut assay (words) (mutated ARE): inactive across all assays; also recorded: inactive in all assays

Compound: C[C@H](CCC(=O)O)[C@H]1CC[C@H]2[C@@H]3CC[C@@H]4C[C@H](O)CC[C@]4(C)[C@H]3CC[C@]12C [Lithocholic acid]
- Emax [1, 5]: 65%
- EC50 [1, 6]: 17.7 ± 5.7 µM
- Emax ([2]; Homo sapiens, HepG2, confirmation/follow-up studies, activation of ARE reporter as % of positive control (β-napthoflavone), read-out: ARE-luc Efficacy): 61%
- EC50 [2, 7]: 21.9 ± 8.2 µM
- activity in ARE-luc assay (words) ([2]; follow-up studies, up to 46 µM): active
- activity in ARE-luc assay (words) [2, 8]: inactive
- ARE-bla mutant IC50 (mutated ARE): inactive

Compound: ClC(Cl)=C(c1ccc(Cl)cc1)c1ccc(Cl)cc1 [p,p' -DDE, Dichlorodiphenyl dichloroethylene]
- ARE-bla EC50 [1, 3]: inactive
- ARE-luc EC50 [2, 3]: inactive
- ARE-bla mutant IC50 (mutated ARE; [9]): inactive

Compound: c1ccc2c(c1)-c1cccc3c1c-2cc1ccccc13 [Benzo(b)fluoranthene]
- Emax [1, 10]: 136%
- EC50 [1, 6]: 5.9 ± 3 µM
- Emax [2, 11]: 19%
- EC50 [2, 7]: 1.3 ± 1 µM
- activity in ARE-bla-mut assay (words) (mutated ARE): may exhibit autofluorescence
- ARE-bla mutant Efficacy (mutated ARE; confirmation/follow-up studies): 134%

Compound: CN(C)c1ccc(N=O)cc1 [N,N-Dimethyl-p-nitrosoaniline]
- EC50 [1, 12]: 9.9 ± 3.4 µM
- Emax [1, 13]: 82%
- EC50 [2, 14]: 29.2 ± 2 µM
- Emax [2, 15]: 626%
- ARE-bla mutant IC50 (mutated ARE): inactive

Compound: NC(=S)Nc1ccccc1 [Phenylthiourea]
- ARE-bla EC50 [1, 3]: inactive
- ARE-luc EC50 [2, 3]: inactive
- ARE-bla mutant IC50 (mutated ARE; [9]): inactive

Compound: Nc1nc2ccc([N+](=O)[O-])cc2s1 [2-Amino-6-nitrobenzothiazole]
- Emax [1, 5]: 107%
- EC50 [1, 6]: 16.7 ± 9.6 µM
- activity in ARE-bla assay (words) ([1]; follow-up studies, up to 46 µM): active only in the ARE-bla assay
- ARE-luc EC50 [2, 3]: inactive
- ARE-bla mutant IC50 (mutated ARE; [9]): inactive

Compound: Nc1ccccc1O [o-Aminophenol]
- EC50 [1, 12]: 6.8 ± 4.1 µM
- Emax [1, 13]: 95%
- EC50 [2, 14]: 26.2 ± 3.3 µM
- Emax [2, 15]: 234%
- ARE-bla mutant IC50 (mutated ARE): inactive

Compound: c1ccc2cc3c(cc2c1)-c1cccc2cccc-3c12 [Benzo(k)fluoranthene]
- Emax [1, 10]: 114%
- EC50 [1, 6]: 1.6 ± 0.7 µM
- Emax [2, 11]: 103%
- EC50 [2, 7]: 4.9 ± 2.2 µM
- activity in ARE-bla-mut assay (words) (mutated ARE): may exhibit autofluorescence
- ARE-bla mutant Efficacy (mutated ARE; confirmation/follow-up studies): 160%

Compound: Clc1ccc(C(c2ccc(Cl)cc2)C(Cl)Cl)cc1 [Rhothane (TDE), Tetrachlorodiphenylethane]
- EC50 [1, 16]: 16.4 ± 7.3 µM
- ARE-bla Efficacy [1, 17]: 43%
- EC50 [2, 18]: 13.5 ± 3.3 µM
- ARE-luc Efficacy [2, 17]: 32%
- activity in ARE-luc assay (words) ([2]; follow-up studies, up to 46 µM): active
- activity in ARE-luc assay (words) [2, 8]: inactive
- ARE-bla mutant IC50 (mutated ARE; [9]): inactive

Compound: O=C(O)CCCc1ccc(N(CCCl)CCCl)cc1 [Chlorambucil, reference compound]
- ARE-bla EC50 [1, 3]: inactive
- activity in ARE-bla assay (words) ([1]; follow-up studies, up to 46 µM): inactive in all assays
- activity in ARE-bla assay (words) [1, 19]: inactive across all assays
- ARE-luc EC50 [2, 3]: inactive
- activity in ARE-luc assay (words) ([2]; follow-up studies, up to 46 µM): inactive in all assays
- activity in ARE-luc assay (words) [2, 19]: inactive across all assays
- ARE-bla mutant IC50 (mutated ARE; [9]): inactive
- activity in ARE-bla-mut assay (words) (mutated ARE; follow-up studies, up to 46 µM): inactive in all assays
- activity in ARE-bla-mut assay (words) (mutated ARE; [19]): inactive across all assays

Compound: Nc1ccc(N)c(Cl)c1.O=S(=O)(O)O [2-Chloro-p-phenylenediamine SO4]
- EC50 [1, 16]: 17.1 ± 4.1 µM
- ARE-bla Efficacy [1, 20]: 72%
- EC50 [2, 18]: 26.5 ± 6 µM
- ARE-luc Efficacy [2, 20]: 83%
- ARE-bla mutant IC50 (mutated ARE; [9]): inactive

Compound: 1,3-Dinitronapthalene
- ARE-bla Efficacy [1]: 80%
- EC50 ([1]; read-out: ARE-bla EC50): 1.2 ± 0.2 µM
- ARE-luc Efficacy [2]: 180%
- EC50 ([2]; read-out: ARE-luc EC50): 16.2 ± 11 µM
- ARE-bla mutant IC50 (mutated ARE): inactive

- EC50 ([1]; primary screening, positive control across all 18 plates, read-out: average EC50 in ARE-bla assay): 2.1 µM
- EC50 ([2]; primary screening, positive control across all 18 plates, read-out: average EC50 in ARE-luc assay): 5.2 µM
Compound: O=c1cc(-c2ccccc2)oc2ccc3ccccc3c12 [β-Napthoflavone, reference compound]

Compound: C[S@@+]([O-])CCCCN=C=S [L-sulforaphane]
- activity in ARE-bla assay (words) [1, 8]: active
- activity in ARE-luc assay (words) [2, 8]: active

Compound: CC(C)Nc1ccc(Nc2ccccc2)cc1 [N-Isopropyl-N'-phenyl-p-phenylenediamine]
- EC50 [1, 12]: 13.1 ± 8.9 µM
- Emax [1, 13]: 71%
- ARE-bla mutant IC50 (mutated ARE): inactive

Reference: publication PMC3440086, “Profiling Environmental Chemicals for Activity in the Antioxidant Response Element Signaling Pathway Using a High Throughput Screening Approach” (Environmental Health Perspectives, 2012)
